{
  "source": "a compilation of properties of binary mixtures (doi:10.1016/j.jct.2016.12.008)",
  "test": "xn = mol fraction of the nth substance listed",
  "settings": "100 kPa",
  "data": [
    {"smiles": "O", "note": "+ CC[n+]1ccn(C)c1.N#C[S-]", "values": [
      {"measurement": "viscosity", "setting": "288.15 K, x1 = 1", "value": 1.13, "unit": "mPa·s"},
      {"measurement": "viscosity", "setting": "298.15 K, x1 = 1", "value": 0.89, "unit": "mPa·s"},
      {"measurement": "viscosity", "setting": "308.15 K, x1 = 1", "value": 0.72, "unit": "mPa·s"},
      {"measurement": "viscosity", "setting": "313.15 K, x1 = 1", "value": 0.65, "unit": "mPa·s"},
      {"measurement": "viscosity", "setting": "318.15 K, x1 = 1", "value": 0.6, "unit": "mPa·s"}
    ]},
    {"smiles": "CC[n+]1ccn(C)c1.N#C[S-]", "note": "+ O", "values": [
      {"measurement": "viscosity", "setting": "288.15 K, x2 = 0", "value": 34.24, "unit": "mPa·s"},
      {"measurement": "viscosity", "setting": "288.15 K, x2 = 0.1006", "value": 27.45, "unit": "mPa·s"},
      {"measurement": "viscosity", "setting": "288.15 K, x2 = 0.1948", "value": 21.99, "unit": "mPa·s"},
      {"measurement": "viscosity", "setting": "288.15 K, x2 = 0.3026", "value": 18.6, "unit": "mPa·s"},
      {"measurement": "viscosity", "setting": "288.15 K, x2 = 0.4011", "value": 15.07, "unit": "mPa·s"},
      {"measurement": "viscosity", "setting": "288.15 K, x2 = 0.4979", "value": 12.4, "unit": "mPa·s"},
      {"measurement": "viscosity", "setting": "288.15 K, x2 = 0.6043", "value": 9.2, "unit": "mPa·s"},
      {"measurement": "viscosity", "setting": "288.15 K, x2 = 0.6887", "value": 7.15, "unit": "mPa·s"},
      {"measurement": "viscosity", "setting": "288.15 K, x2 = 0.7981", "value": 4.7, "unit": "mPa·s"},
      {"measurement": "viscosity", "setting": "288.15 K, x2 = 0.9105", "value": 2.53, "unit": "mPa·s"},
      {"measurement": "viscosity", "setting": "288.15 K, x2 = 0.9506", "value": 1.86, "unit": "mPa·s"},
      {"measurement": "viscosity", "setting": "293.15 K, x2 = 0", "value": 27.9, "unit": "mPa·s"},
      {"measurement": "viscosity", "setting": "293.15 K, x2 = 0.1948", "value": 18.63, "unit": "mPa·s"},
      {"measurement": "viscosity", "setting": "293.15 K, x2 = 0.3026", "value": 15.74, "unit": "mPa·s"},
      {"measurement": "viscosity", "setting": "293.15 K, x2 = 0.4011", "value": 12.81, "unit": "mPa·s"},
      {"measurement": "viscosity", "setting": "293.15 K, x2 = 0.4979", "value": 10.43, "unit": "mPa·s"},
      {"measurement": "viscosity", "setting": "293.15 K, x2 = 0.6043", "value": 7.9, "unit": "mPa·s"},
      {"measurement": "viscosity", "setting": "293.15 K, x2 = 0.6887", "value": 6.17, "unit": "mPa·s"},
      {"measurement": "viscosity", "setting": "293.15 K, x2 = 0.9443", "value": 1.76, "unit": "mPa·s"},
      {"measurement": "viscosity", "setting": "293.15 K, x2 = 0.9506", "value": 1.67, "unit": "mPa·s"},
      {"measurement": "viscosity", "setting": "298.15 K, x2 = 0", "value": 22.68, "unit": "mPa·s"},
      {"measurement": "viscosity", "setting": "298.15 K, x2 = 0.1006", "value": 18.74, "unit": "mPa·s"},
      {"measurement": "viscosity", "setting": "298.15 K, x2 = 0.1948", "value": 15.93, "unit": "mPa·s"},
      {"measurement": "viscosity", "setting": "298.15 K, x2 = 0.3026", "value": 13.44, "unit": "mPa·s"},
      {"measurement": "viscosity", "setting": "298.15 K, x2 = 0.4011", "value": 10.99, "unit": "mPa·s"},
      {"measurement": "viscosity", "setting": "298.15 K, x2 = 0.4979", "value": 8.94, "unit": "mPa·s"},
      {"measurement": "viscosity", "setting": "298.15 K, x2 = 0.6043", "value": 6.85, "unit": "mPa·s"},
      {"measurement": "viscosity", "setting": "298.15 K, x2 = 0.6887", "value": 5.38, "unit": "mPa·s"},
      {"measurement": "viscosity", "setting": "298.15 K, x2 = 0.9105", "value": 2.02, "unit": "mPa·s"},
      {"measurement": "viscosity", "setting": "298.15 K, x2 = 0.9443", "value": 1.57, "unit": "mPa·s"},
      {"measurement": "viscosity", "setting": "298.15 K, x2 = 0.9506", "value": 1.49, "unit": "mPa·s"},
      {"measurement": "viscosity", "setting": "303.15 K, x2 = 0", "value": 19.09, "unit": "mPa·s"},
      {"measurement": "viscosity", "setting": "303.15 K, x2 = 0.1006", "value": 16.03, "unit": "mPa·s"},
      {"measurement": "viscosity", "setting": "303.15 K, x2 = 0.3026", "value": 11.61, "unit": "mPa·s"},
      {"measurement": "viscosity", "setting": "303.15 K, x2 = 0.4979", "value": 7.77, "unit": "mPa·s"},
      {"measurement": "viscosity", "setting": "303.15 K, x2 = 0.6043", "value": 6.01, "unit": "mPa·s"},
      {"measurement": "viscosity", "setting": "303.15 K, x2 = 0.9105", "value": 1.79, "unit": "mPa·s"},
      {"measurement": "viscosity", "setting": "303.15 K, x2 = 0.9443", "value": 1.39, "unit": "mPa·s"},
      {"measurement": "viscosity", "setting": "303.15 K, x2 = 0.9506", "value": 1.32, "unit": "mPa·s"},
      {"measurement": "viscosity", "setting": "308.15 K, x2 = 0.1006", "value": 13.87, "unit": "mPa·s"},
      {"measurement": "viscosity", "setting": "308.15 K, x2 = 0.3026", "value": 10.14, "unit": "mPa·s"},
      {"measurement": "viscosity", "setting": "308.15 K, x2 = 0.4011", "value": 8.39, "unit": "mPa·s"},
      {"measurement": "viscosity", "setting": "308.15 K, x2 = 0.4979", "value": 6.83, "unit": "mPa·s"},
      {"measurement": "viscosity", "setting": "308.15 K, x2 = 0.9105", "value": 1.6, "unit": "mPa·s"},
      {"measurement": "viscosity", "setting": "308.15 K, x2 = 0.9443", "value": 1.25, "unit": "mPa·s"},
      {"measurement": "viscosity", "setting": "308.15 K, x2 = 0.9506", "value": 1.19, "unit": "mPa·s"},
      {"measurement": "viscosity", "setting": "313.15 K, x2 = 0", "value": 14.18, "unit": "mPa·s"},
      {"measurement": "viscosity", "setting": "313.15 K, x2 = 0.1948", "value": 10.58, "unit": "mPa·s"},
      {"measurement": "viscosity", "setting": "313.15 K, x2 = 0.3026", "value": 8.93, "unit": "mPa·s"},
      {"measurement": "viscosity", "setting": "313.15 K, x2 = 0.4011", "value": 7.43, "unit": "mPa·s"},
      {"measurement": "viscosity", "setting": "313.15 K, x2 = 0.4979", "value": 6.07, "unit": "mPa·s"},
      {"measurement": "viscosity", "setting": "313.15 K, x2 = 0.6043", "value": 4.74, "unit": "mPa·s"},
      {"measurement": "viscosity", "setting": "313.15 K, x2 = 0.6887", "value": 3.74, "unit": "mPa·s"},
      {"measurement": "viscosity", "setting": "313.15 K, x2 = 0.9443", "value": 1.13, "unit": "mPa·s"},
      {"measurement": "viscosity", "setting": "318.15 K, x2 = 0.1006", "value": 10.71, "unit": "mPa·s"},
      {"measurement": "viscosity", "setting": "318.15 K, x2 = 0.3026", "value": 7.94, "unit": "mPa·s"},
      {"measurement": "viscosity", "setting": "318.15 K, x2 = 0.4011", "value": 6.62, "unit": "mPa·s"},
      {"measurement": "viscosity", "setting": "318.15 K, x2 = 0.4979", "value": 5.43, "unit": "mPa·s"},
      {"measurement": "viscosity", "setting": "318.15 K, x2 = 0.6043", "value": 4.26, "unit": "mPa·s"},
      {"measurement": "viscosity", "setting": "318.15 K, x2 = 0.6887", "value": 3.35, "unit": "mPa·s"},
      {"measurement": "viscosity", "setting": "318.15 K, x2 = 0.9105", "value": 1.31, "unit": "mPa·s"},
      {"measurement": "viscosity", "setting": "318.15 K, x2 = 0.9443", "value": 1.03, "unit": "mPa·s"},
      {"measurement": "viscosity", "setting": "318.15 K, x2 = 0.9506", "value": 0.98, "unit": "mPa·s"}
    ]}
  ]
}
